# Measured values: the Biogen ADME set (Fang et al. 2023)
# Conditions: for aqueous solubility: pH 6.8
Compound,MDR1-MDCK efflux ratio,"intrinsic clearance, human liver microsomes","intrinsic clearance, rat liver microsomes",aqueous solubility,"fraction unbound, human plasma","fraction unbound, rat plasma"
Cc1nccn1-c1cncc(N2CCN(CC3CCCC3)C(=O)C2)n1,6.94,19.7 mL/min/kg,540 mL/min/kg,49.7 µg/mL,–,–
O=S(=O)(c1cn[nH]c1)N1CCCC(c2cccc(-c3cccc(Cl)c3)n2)C1 (configuration not stated),3,52.6 mL/min/kg,394 mL/min/kg,1.45 µg/mL,–,–
Fc1cc(-c2noc(C3CCN(C4CC4)CC3)n2)cc(F)c1F,–,75 mL/min/kg,591 mL/min/kg,–,–,–
O=C(NC1CCCC1)c1cc(C2CC2)nc2ccccc12,0.695,61.9 mL/min/kg,140 mL/min/kg,18.6 µg/mL,–,–
Cc1noc(C(C)C)c1C(=O)N1CC(C)OC(c2ccccc2)C1 (configuration not stated),0.943,71.2 mL/min/kg,1610 mL/min/kg,–,0.152,0.129
CCN1CCC(CNC(=O)c2cc(C)nc3cc(F)ccc23)CC1,25.4,≤ 4.74 mL/min/kg,≤ 10.7 mL/min/kg,37.2 µg/mL,–,–
O=C(NCCCn1ccnc1)N1CCC12CCC2,30.5,≤ 4.74 mL/min/kg,27.8 mL/min/kg,41.1 µg/mL,–,–
CCc1cc2c(OCC(=O)N3CCCC3)ncnc2s1,–,25.8 mL/min/kg,597 mL/min/kg,–,–,–
Cc1cc(C)c(-c2csc(NC(=O)Cn3cnnn3)n2)c(C)c1,7.69,–,–,0.12 µg/mL,–,–
COc1ccc(-c2ccc(CNc3ccc(CN4CCC(C)CC4)cc3)cc2)cc1,–,124 mL/min/kg,32.9 mL/min/kg,14.7 µg/mL,–,–
CCCc1ncncc1C(=O)NCc1noc(C2CC2)n1,1.73,≤ 4.74 mL/min/kg,112 mL/min/kg,–,–,–
c1nc(N2CCC3(CCCCC3)C2)c2cn[nH]c2n1,0.8,8.33 mL/min/kg,710 mL/min/kg,–,–,–
CCN(CC)Cc1cnc(NC(=O)c2ccccc2)s1,–,≤ 4.74 mL/min/kg,192 mL/min/kg,–,–,–
Cc1ccc2c(c1)C(=O)CC1(CCN(C(=O)c3ccc4nc(C)cc(O)c4c3)CC1)O2,30.1,18.4 mL/min/kg,119 mL/min/kg,20.2 µg/mL,–,–
CCc1nc2ccccc2n1CC(=O)N1CCNC(=O)C1,3.86,≤ 4.74 mL/min/kg,≤ 10.7 mL/min/kg,50.6 µg/mL,–,–
CCCn1ncc(CN2CCC(c3cc4cccnc4[nH]3)CC2)c1C,8.86,41.8 mL/min/kg,201 mL/min/kg,–,–,–
O=C(Nc1ccn(Cc2ccc(O)cc2C(F)(F)F)n1)c1c(F)cccc1F,2.23,16.7 mL/min/kg,438 mL/min/kg,43.5 µg/mL,–,–
Cc1ccnc(NC(=O)CN(C)c2ncnc3sc4c(c23)CCC(C)C4)c1 (configuration not stated),–,–,–,3.88 µg/mL,–,–
CCOc1cccc(NS(C)(=O)=O)n1,0.969,≤ 4.74 mL/min/kg,≤ 10.7 mL/min/kg,–,–,–
CO[C@H]1CC[C@H](C(=O)NC[C@H]2CC[C@H](c3nnc(-c4nccc5ccccc45)o3)CC2)CC1,8.64,103 mL/min/kg,378 mL/min/kg,21.2 µg/mL,–,–

Compound,MDR1-MDCK efflux ratio,"intrinsic clearance, human liver microsomes","intrinsic clearance, rat liver microsomes",aqueous solubility,"fraction unbound, human plasma","fraction unbound, rat plasma"
CC(C)NC(=O)CN(C)c1ccc(Cl)c(C#N)n1,–,≤ 4.74 mL/min/kg,87.1 mL/min/kg,–,–,–
O=C(Nc1nc2ccccc2[nH]1)c1cc(-c2ccccc2)nc2ccccc12,–,–,–,0.45 µg/mL,–,–
O/N=C1/CCCc2c1cnc1ncnn21,1.67,≤ 4.74 mL/min/kg,≤ 10.7 mL/min/kg,–,–,–
O=C(Cc1n[nH]c2ccccc12)N1CCCO1,0.958,≤ 4.74 mL/min/kg,31.6 mL/min/kg,–,–,–
CC(=O)Nc1ccc(C(=O)N2CCc3ncncc3C2)cc1,17.2,≤ 4.74 mL/min/kg,≤ 10.7 mL/min/kg,33.7 µg/mL,–,–
COc1cc(CN(C)C(=O)Nc2cccc(C)c2C)ccc1O,–,15.5 mL/min/kg,137 mL/min/kg,51.8 µg/mL,–,–
COC(=O)N1CCCN(C(=O)c2ccc(-c3ccccc3Cl)o2)CC1,0.661,174 mL/min/kg,4850 mL/min/kg,58.9 µg/mL,–,–
O=C(c1ccc(-c2ccncc2)cc1)N1CCC(O)(CN2CCCC2)CC1,17.7,≤ 4.74 mL/min/kg,76 mL/min/kg,–,–,–
Cc1ccc2[nH]c(CNC(=O)c3ncoc3C)nc2c1C,2.39,13.6 mL/min/kg,244 mL/min/kg,–,–,–
CC(C)(CO)NCCCCn1c2ccccc2c2ccccc21,7.39,54.2 mL/min/kg,163 mL/min/kg,31.8 µg/mL,–,–
O=C1CCCC[C@@H]2[C@H](C[C@@H](Cc3ccccc3F)N2C(=O)c2cccc3ncccc23)N1,48.1,63.7 mL/min/kg,400 mL/min/kg,–,0.19,0.223
CCOc1ccnc(NCCCc2nc3cc(F)ccc3[nH]2)n1,3.15,237 mL/min/kg,3280 mL/min/kg,–,–,–
CN(Cc1ccc(N)nc1)c1ncccn1,0.62,≤ 4.74 mL/min/kg,22.8 mL/min/kg,28.5 µg/mL,–,–
COCCNc1cc(NC(=O)N2CCCc3cc(CN4CCN(C)CC4=O)c(C=O)nc32)ncc1C#N,46,14.4 mL/min/kg,24 mL/min/kg,20 µg/mL,–,–
CC(C)(C)c1nnnn1CC(=O)NC12CC3CC(CC(C3)C1)C2,0.776,57.4 mL/min/kg,518 mL/min/kg,25.8 µg/mL,–,–
COc1ccc(OC)c(-c2cc(C(=O)N3CCCN(C(C)=O)CC3)no2)c1,4.72,12.9 mL/min/kg,214 mL/min/kg,59.7 µg/mL,–,–
CNC(=O)Cc1cccc(OCCN2CCCCC2)c1,11.8,≤ 4.74 mL/min/kg,57.3 mL/min/kg,–,–,–
Cc1nn(Cc2csc(-c3cccs3)n2)c(N)c1C#N,0.689,19.2 mL/min/kg,388 mL/min/kg,39.6 µg/mL,–,–
O=C(CC1CCNCC1)NCCc1ccccc1F,8.79,≤ 4.74 mL/min/kg,21.9 mL/min/kg,58.5 µg/mL,–,–
CN(CC(=O)Nc1ccncc1)C1CCCC1,0.484,≤ 4.74 mL/min/kg,393 mL/min/kg,40.8 µg/mL,–,–

Compound,MDR1-MDCK efflux ratio,"intrinsic clearance, human liver microsomes","intrinsic clearance, rat liver microsomes",aqueous solubility,"fraction unbound, human plasma","fraction unbound, rat plasma"
CCCCN1CCN(C(=O)c2cccc(-c3ccc(CO)cc3)c2)CC1,1.13,26.6 mL/min/kg,269 mL/min/kg,–,–,–
O=C(O)c1cc(Cl)cc2cccnc12,–,≤ 4.74 mL/min/kg,≤ 10.7 mL/min/kg,26.9 µg/mL,–,–
COc1ccc(-c2nnc(NC(=O)c3ccc4ccccc4c3)o2)cc1OC,–,–,–,0.27 µg/mL,–,–
CC#CCCNC(=O)c1cccnc1C,0.755,≤ 4.74 mL/min/kg,21.5 mL/min/kg,–,–,–
O[C@@H]1CO[C@H]2C[C@@H]1Nc1c(Cc3ccccc3)cccc12,0.47,33.5 mL/min/kg,354 mL/min/kg,30 µg/mL,–,–
Cc1ccc(NC(=O)OCC(F)(F)F)cn1,0.584,≤ 4.74 mL/min/kg,35.2 mL/min/kg,–,–,–
CCOC(=O)N1CCc2cc(NC(=O)c3oc(C)cc3C)ccc21,–,11.5 mL/min/kg,118 mL/min/kg,–,–,–
Cc1cccc(NC(=O)N2CCC(N3CC=CC3)CC2)c1Cl,0.517,9.11 mL/min/kg,1040 mL/min/kg,–,–,–
C[C@@H](NC(=O)N1CCC2(CCN(C)CC2)C1)c1ccc(F)cc1,1.75,≤ 4.74 mL/min/kg,≤ 10.7 mL/min/kg,–,–,–
O=C1CCCc2nc(Nc3nc(-c4ccccc4)c4ccccc4n3)ncc21,–,–,–,0.16 µg/mL,–,–
Oc1cccc(CN2CCN(c3ncc(Br)cn3)CC2)c1,–,29.3 mL/min/kg,303 mL/min/kg,4.95 µg/mL,–,–
CC(C)(Oc1ccc(-c2cnc(N)c(-c3ccc(Cl)cc3)c2)cc1)C(=O)O,–,–,–,45.4 µg/mL,0.0007,0.0004
CN(C)c1cccc(Cn2ccnc2-c2ccc(O)cc2)c1,3.77,77.7 mL/min/kg,1040 mL/min/kg,27.1 µg/mL,–,–
CN(Cc1n[nH]c2c1CCCC2)c1nccnc1C#N,1.01,39.6 mL/min/kg,1140 mL/min/kg,20.5 µg/mL,–,–
C=CCNc1ncc(-c2cnccn2)c(C2CC2)n1,0.531,13 mL/min/kg,734 mL/min/kg,–,–,–
O=C(/C=C/c1ccc(Cl)cc1)N1CCC2(CC1)CN(Cc1ccc(Cl)c(Cl)c1)C(=O)O2,2.5,22.8 mL/min/kg,474 mL/min/kg,2.15 µg/mL,–,–
CCCCOc1ccccc1-c1cc(C(=O)NCc2ccccc2C)[nH]n1,0.682,–,–,0.26 µg/mL,–,–
O=C(NC1CCCCC1)N1CCc2nc3ccccn3c(=O)c2C1,–,≤ 4.74 mL/min/kg,123 mL/min/kg,50 µg/mL,–,–
Cc1nc(C(=O)NC2CC2)ccc1C#N,–,–,–,36.2 µg/mL,–,–
